Assay results taken from ChEMBL document CHEMBL3414562, “Synthesis of isocryptolepine analogues and their structure-activity relationship studies as antiplasmodial and antiproliferative agents” (Eur J Med Chem, 2015).

Key:
[1] = Cytotoxicity against human HuCCa1 cells by MTT assay; format: functional, cell-based; settings: HuCC-A1
[2] = test system: Plasmodium falciparum; assay: microbe, parasite or virus in culture; settings: SRIV35
[3] = test system: Plasmodium falciparum; assay: microbe, parasite or virus in culture; settings: 3D7
Description: Antiplasmodial activity against chloroquine-sensitive Plasmodium falciparum 3D7

[4] = test system: Plasmodium falciparum; assay: microbe, parasite or virus in culture; settings: K1
Description: Antiplasmodial activity against chloroquine-resistant Plasmodium falciparum K1

[5] = test system: A549; assay: Cytotoxicity against human A549 cells by MTT assay; format: functional, cell-based
[6] = Selectivity index, ratio of IC50 for human MRC5 cells to IC50 for chloroquine/mefloquine-resistant Plasmodium falciparum SKF58; format: toxicity, cell-based; settings: read-out: Ratio IC50
[7] = test system: HepG2; assay: Cytotoxicity against human HepG2 cells by MTT assay; format: functional, cell-based
[8] = Selectivity index, ratio of IC50 for human MRC5 cells to IC50 for human HuCCa1 cells; format: functional
[9] = Selectivity index, ratio of IC50 for human MRC5 cells to IC50 for chloroquine/mefloquine-resistant Plasmodium falciparum SRIV35; format: toxicity, cell-based; settings: read-out: Ratio IC50
[10] = test system: Plasmodium falciparum; assay: microbe, parasite or virus in culture; settings: SKF58
[11] = Selectivity index, ratio of IC50 for human MRC5 cells to IC50 for […]; format: toxicity, cell-based; settings: read-out: Ratio IC50
[12] = Selectivity index, ratio of IC50 for human MRC5 cells to IC50 for chloroquine-resistant Plasmodium falciparum K1; format: toxicity, cell-based; settings: read-out: Ratio IC50
[13] = Cytotoxicity against human MOLT3 cells by XTT assay; format: functional, cell-based; settings: MOLT-3
[14] = test system: MRC5; assay: Cytotoxicity against human MRC5 cells by MTT assay; format: cell-based
[15] = test system: MRC5; assay: Cytotoxicity against human MRC5 cells at 72014 nM by MTT assay relative to control; format: cell-based; settings: mrc5, 72.014 µM
[16] = test system: MRC5; assay: Cytotoxicity against human MRC5 cells at 131866 nM by MTT assay relative to control; format: cell-based; settings: mrc5, 131.866 µM
[17] = test system: MRC5; assay: Cytotoxicity against human MRC5 cells at 137509 nM by MTT assay relative to control; format: cell-based; settings: mrc5, 137.509 µM
[18] = test system: MRC5; assay: Cytotoxicity against human MRC5 cells at […] uM by MTT assay relative to control; format: cell-based; settings: mrc5, 91.99 µM

Row | SMILES | IC50 [1] | IC50 [2] | IC50 [3] | IC50 [4] | IC50 [5] | selectivity ratio [6] | IC50 [7] | Ratio IC50 [8] | selectivity ratio [9] | IC50 [10] | selectivity ratio [11] | selectivity ratio [12] | IC50 [13] | IC50 [14] | Activity [15] | Activity [16] | Activity [17] | Activity [18]
1 | Cn1cc2c3cc(Br)ccc3nc-2c2ccc(F)cc21 | 10.2 µM | 83 nM | 37.9 nM | 61.8 nM | 7.97 µM | 284 | 7.41 µM | 2.58 | 317 | 92.4 nM | 693 | 425 | 1260 nM | 26.3 µM | – | – | – | –
2 | Cn1cc2c3cc(Br)ccc3nc-2c2ccc(F)c(F)c21 | 42.7 µM | > 2000 nM | 290 nM | 1350 nM | 25 µM | > 7.3 | – | >1.68 | – | 9860 nM | > 248 | > 53.2 | 17400 nM | > 72 µM | 32.6% | – | – | –
3 | Cn1cc2c3cc(Br)ccc3nc-2c2cc(C(F)(F)F)ccc21 | 7.44 µM | 929 nM | 579 nM | 1370 nM | 105 µM | > 108 | 75.6 µM | >17.72 | > 142 | 1220 nM | > 228 | > 96.4 | 35000 nM | > 132 µM | – | 35.85% | – | –
4 | Cn1cc2c3cc(Br)ccc3nc-2c2cc(OC(F)(F)F)ccc21 | 7.01 µM | 108 nM | 57.7 nM | 67.9 nM | 8.46 µM | 799 | 8.2 µM | 12.36 | 804 | 108 nM | 1500 | 1280 | 2600 nM | 86.6 µM | – | – | – | –
5 | Cn1cc2c3cc(Br)ccc3nc-2c2cc(F)cc(Cl)c21 | 8 µM | > 2000 nM | > 2000 nM | > 2000 nM | 35.9 µM | – | 3.47 µM | 13.5 | – | > 2000 nM | – | – | – | 108 µM | – | – | – | –
6 | Cn1cc2c3cc(Br)ccc3nc-2c2cc(Cl)cc(F)c21 | 11.4 µM | 1400 nM | 758 nM | 1360 nM | – | > 97.9 | 8.76 µM | >12.07 | > 98.2 | 1400 nM | > 181 | > 101 | 55700 nM | > 138 µM | – | – | 34% | –
7 | C[C@H]1[C@H](OC(=O)CCC(=O)O)O[C@@H]2O[C@@]3(C)CC[C@H]4[C@H](C)CC[C@@H]1[C@@]24OO3 [ARTESUNATE] | – | 4.1 nM | 4.2 nM | 3.5 nM | – | – | – | – | – | 10 nM | – | – | – | – | – | – | – | –
8 | COc1cccc2c1C(=O)c1c(O)c3c(c(O)c1C2=O)C[C@@](O)(C(=O)CO)C[C@@H]3O[C@H]1C[C@H](N)[C@H](O)[C@H](C)O1 [DOXORUBICIN] | 2.39 µM | – | – | – | – | – | 0.4 µM | – | – | – | – | – | – | > 92 µM | – | – | – | 37.13%
9 | COc1cc([C@@H]2c3cc4c(cc3[C@@H](O[C@@H]3O[C@@H]5CO[C@@H](C)O[C@H]5[C@H](O)[C@H]3O)[C@H]3COC(=O)[C@H]23)OCO4)cc(OC)c1O [ETOPOSIDE] | – | – | – | – | – | – | 40.5 µM | – | – | – | – | – | 110 nM | – | – | – | – | –
10 | Cn1cc2c3ccccc3nc-2c2ccccc21 [ISOCRYPTOLEPINE] | 1.81 µM | 463 nM | 585 nM | – | 1.21 µM | 20.4 | 0.73 µM | 4.62 | 18 | 410 nM | 14.3 | 10.7 | 730 nM | 8.35 µM | – | – | – | –
11 | OC(c1cc(C(F)(F)F)nc2c(C(F)(F)F)cccc12)C1CCCCN1 (configuration not stated) [MEFLOQUINE] | – | 65 nM | – | – | – | – | – | – | – | – | – | – | – | – | – | – | – | –
12 | C=C[C@H]1CN2CC[C@H]1C[C@H]2[C@H](O)c1ccnc2ccc(OC)cc12 [QUININE] | – | 431 nM | 80 nM | 113 nM | – | – | – | – | – | 199 nM | – | – | – | – | – | – | – | –
